Data published in patent publication US8604217B2, “Compound, a process for its preparation, a pharmaceutical composition, use of a compound, a method for modulating or regulating serine/threonine kinases and a serine/threonine kinases modulating agent” (Selvita S.A., priority 2009, dated 2013).

Assays:
Experiment in all cases: KinaseProfiler kinase panel
Assay type in all cases: biochemical
JNK3(h) = JNK3(h) (Homo sapiens (Human), UniProt P53779)
Rsk3(h) = Rsk3(h) (Homo sapiens (Human), UniProt Q15349)
Arg(m) = Arg(m) (Mus musculus (Mouse), UniProt Q4JIM5)
MKK4(m) = MKK4(m) (Mus musculus (Mouse), UniProt P47809)
PDGFRα(V561D)(h) = PDGFRα(V561D)(h) (Homo sapiens (Human), UniProt P16234, V561D)
EphA4(h) = EphA4(h) (Homo sapiens (Human), UniProt P54764)
SAPK4(h) = SAPK4(h) (Homo sapiens (Human), UniProt O15264)
DYRK2(h) = DYRK2(h) (Homo sapiens (Human), UniProt Q92630)
Chain of DYRK2(h) (Q92630 whole entry): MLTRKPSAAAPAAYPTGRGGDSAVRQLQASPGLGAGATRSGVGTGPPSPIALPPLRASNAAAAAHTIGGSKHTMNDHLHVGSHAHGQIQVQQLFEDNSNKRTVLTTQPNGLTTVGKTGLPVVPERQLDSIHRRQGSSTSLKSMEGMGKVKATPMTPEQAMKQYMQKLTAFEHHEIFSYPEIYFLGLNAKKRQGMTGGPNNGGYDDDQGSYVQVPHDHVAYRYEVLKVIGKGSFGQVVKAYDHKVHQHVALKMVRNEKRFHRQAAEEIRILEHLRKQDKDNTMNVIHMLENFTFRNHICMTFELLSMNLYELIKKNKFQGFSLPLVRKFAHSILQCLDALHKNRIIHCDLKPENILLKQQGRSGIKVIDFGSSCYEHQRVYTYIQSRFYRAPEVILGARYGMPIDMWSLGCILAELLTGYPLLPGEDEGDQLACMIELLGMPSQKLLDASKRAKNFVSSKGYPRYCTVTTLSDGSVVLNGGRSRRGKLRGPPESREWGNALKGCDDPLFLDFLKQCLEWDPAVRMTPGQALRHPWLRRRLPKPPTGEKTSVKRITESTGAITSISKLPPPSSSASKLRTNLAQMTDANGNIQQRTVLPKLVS

Fgr(h) = Fgr(h) (Homo sapiens (Human), UniProt P09769)
Chain of Fgr(h) (P09769 whole entry): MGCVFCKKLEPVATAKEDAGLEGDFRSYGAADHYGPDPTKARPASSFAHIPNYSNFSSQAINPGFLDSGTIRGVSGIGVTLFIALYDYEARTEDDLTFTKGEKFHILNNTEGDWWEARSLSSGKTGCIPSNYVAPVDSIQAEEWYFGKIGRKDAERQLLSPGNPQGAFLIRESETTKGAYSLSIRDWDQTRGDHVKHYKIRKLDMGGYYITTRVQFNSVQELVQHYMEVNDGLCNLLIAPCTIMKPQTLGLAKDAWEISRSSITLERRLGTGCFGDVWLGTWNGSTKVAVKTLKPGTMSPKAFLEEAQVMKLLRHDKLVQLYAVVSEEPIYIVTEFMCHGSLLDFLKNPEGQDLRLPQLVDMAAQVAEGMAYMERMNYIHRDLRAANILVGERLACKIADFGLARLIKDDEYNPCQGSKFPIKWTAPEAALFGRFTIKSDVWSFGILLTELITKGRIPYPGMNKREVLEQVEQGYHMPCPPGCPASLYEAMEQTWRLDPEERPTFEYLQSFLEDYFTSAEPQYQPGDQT

Tie2(Y897S)(h) = Tie2(Y897S)(h) (Homo sapiens (Human), UniProt Q02763, Y897S)
BrSK1(h) = BrSK1(h) (Homo sapiens (Human), UniProt Q8TDC3)
EphA1(h) = EphA1(h) (Homo sapiens (Human), UniProt P21709)
Met(M1268T)(h) = Met(M1268T)(h) (Homo sapiens (Human), UniProt P08581, M1268T)
Flt1(h) = Flt1(h) (Homo sapiens (Human), UniProt P17948)
LKB1(h) = LKB1(h) (Homo sapiens (Human), UniProt Q15831)
CHK1(h) = CHK1(h) (Homo sapiens (Human), UniProt O14757)
GSK3α(h) = GSK3α(h) (Homo sapiens (Human), UniProt P49840)
Chain of GSK3α(h) (P49840 whole entry): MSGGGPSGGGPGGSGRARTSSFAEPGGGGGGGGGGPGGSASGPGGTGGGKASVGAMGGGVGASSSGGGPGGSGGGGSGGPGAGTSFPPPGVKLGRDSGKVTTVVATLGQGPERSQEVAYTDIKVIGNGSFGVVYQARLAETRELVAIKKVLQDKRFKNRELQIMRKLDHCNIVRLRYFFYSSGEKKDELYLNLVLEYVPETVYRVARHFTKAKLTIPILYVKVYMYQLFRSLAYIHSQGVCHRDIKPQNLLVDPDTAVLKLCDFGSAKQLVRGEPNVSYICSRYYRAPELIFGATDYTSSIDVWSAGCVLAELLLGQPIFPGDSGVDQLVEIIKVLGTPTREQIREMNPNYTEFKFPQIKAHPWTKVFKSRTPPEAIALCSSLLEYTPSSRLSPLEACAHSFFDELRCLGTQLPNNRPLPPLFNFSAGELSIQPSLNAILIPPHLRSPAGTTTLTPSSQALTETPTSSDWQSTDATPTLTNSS

CaMKIIγ(h) = CaMKIIγ(h) (Homo sapiens (Human), UniProt Q13555)
MST1(h) = MST1(h) (Homo sapiens (Human), UniProt Q13043)
PKCζ(h) = PKCζ(h) (Homo sapiens (Human), UniProt Q05513)
TGFBR1(h) = TGFBR1(h) (Homo sapiens (Human), UniProt P36897)
Lck(h) activated = Lck(h) activated (Homo sapiens (Human), UniProt P06239)
Abl(Y253F)(h) = Abl(Y253F)(h) (Homo sapiens (Human), UniProt P00519, Y253F)
DRAK1(h) = DRAK1(h) (Homo sapiens (Human), UniProt Q9UEE5)
EphB3(h) = EphB3(h) (Homo sapiens (Human), UniProt P54753)
Chain of EphB3(h) (P54753 34-998): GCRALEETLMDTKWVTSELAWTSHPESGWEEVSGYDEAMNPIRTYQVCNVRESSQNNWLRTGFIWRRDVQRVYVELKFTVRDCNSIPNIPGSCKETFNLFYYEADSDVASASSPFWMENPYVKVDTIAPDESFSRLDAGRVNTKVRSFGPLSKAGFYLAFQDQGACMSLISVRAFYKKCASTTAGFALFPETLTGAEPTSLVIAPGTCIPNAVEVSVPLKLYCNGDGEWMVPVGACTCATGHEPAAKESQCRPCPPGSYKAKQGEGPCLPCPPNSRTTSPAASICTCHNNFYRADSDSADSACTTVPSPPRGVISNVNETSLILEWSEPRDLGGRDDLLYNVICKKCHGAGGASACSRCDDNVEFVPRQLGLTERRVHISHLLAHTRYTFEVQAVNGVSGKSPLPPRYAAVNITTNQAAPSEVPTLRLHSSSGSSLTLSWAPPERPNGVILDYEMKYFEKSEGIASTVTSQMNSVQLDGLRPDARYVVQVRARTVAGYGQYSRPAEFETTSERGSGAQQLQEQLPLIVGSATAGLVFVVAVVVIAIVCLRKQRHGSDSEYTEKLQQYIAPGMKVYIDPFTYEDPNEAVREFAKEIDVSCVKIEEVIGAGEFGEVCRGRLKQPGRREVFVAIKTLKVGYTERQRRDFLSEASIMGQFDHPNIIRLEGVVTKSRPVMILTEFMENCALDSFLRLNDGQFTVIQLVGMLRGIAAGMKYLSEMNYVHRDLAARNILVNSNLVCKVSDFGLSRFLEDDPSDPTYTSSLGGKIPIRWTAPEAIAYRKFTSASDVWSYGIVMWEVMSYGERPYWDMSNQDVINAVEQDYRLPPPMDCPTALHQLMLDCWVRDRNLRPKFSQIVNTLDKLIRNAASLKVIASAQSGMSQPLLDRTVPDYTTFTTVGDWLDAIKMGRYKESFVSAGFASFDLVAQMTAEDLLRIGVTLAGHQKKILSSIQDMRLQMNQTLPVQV

STK33(h) = STK33(h) (Homo sapiens (Human), UniProt Q9BYT3)
Snk(h) = Snk(h) (Homo sapiens (Human), UniProt Q9NYY3)
Abl (H396P) (h) = Abl (H396P) (h) (Homo sapiens (Human), UniProt P00519, H396P)
SGK3(h) = SGK3(h) (Homo sapiens (Human), UniProt Q96BR1)
Chain of SGK3(h) (Q96BR1 whole entry): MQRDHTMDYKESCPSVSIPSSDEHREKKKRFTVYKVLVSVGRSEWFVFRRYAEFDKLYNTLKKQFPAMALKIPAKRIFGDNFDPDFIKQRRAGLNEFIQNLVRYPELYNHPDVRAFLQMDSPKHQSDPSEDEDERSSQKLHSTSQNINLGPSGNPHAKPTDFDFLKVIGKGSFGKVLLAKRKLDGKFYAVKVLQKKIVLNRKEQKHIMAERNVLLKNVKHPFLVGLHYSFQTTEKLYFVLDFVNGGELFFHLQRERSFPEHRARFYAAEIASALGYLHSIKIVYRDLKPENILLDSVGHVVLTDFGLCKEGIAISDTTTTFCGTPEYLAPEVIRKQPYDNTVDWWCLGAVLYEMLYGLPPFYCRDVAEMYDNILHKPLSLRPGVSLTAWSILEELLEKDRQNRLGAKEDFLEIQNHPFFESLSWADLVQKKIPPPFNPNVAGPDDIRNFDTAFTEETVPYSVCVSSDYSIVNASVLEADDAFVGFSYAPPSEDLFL

PRK2(h) = PRK2(h) (Homo sapiens (Human), UniProt Q16513)
Chain of PRK2(h) (Q16513 whole entry): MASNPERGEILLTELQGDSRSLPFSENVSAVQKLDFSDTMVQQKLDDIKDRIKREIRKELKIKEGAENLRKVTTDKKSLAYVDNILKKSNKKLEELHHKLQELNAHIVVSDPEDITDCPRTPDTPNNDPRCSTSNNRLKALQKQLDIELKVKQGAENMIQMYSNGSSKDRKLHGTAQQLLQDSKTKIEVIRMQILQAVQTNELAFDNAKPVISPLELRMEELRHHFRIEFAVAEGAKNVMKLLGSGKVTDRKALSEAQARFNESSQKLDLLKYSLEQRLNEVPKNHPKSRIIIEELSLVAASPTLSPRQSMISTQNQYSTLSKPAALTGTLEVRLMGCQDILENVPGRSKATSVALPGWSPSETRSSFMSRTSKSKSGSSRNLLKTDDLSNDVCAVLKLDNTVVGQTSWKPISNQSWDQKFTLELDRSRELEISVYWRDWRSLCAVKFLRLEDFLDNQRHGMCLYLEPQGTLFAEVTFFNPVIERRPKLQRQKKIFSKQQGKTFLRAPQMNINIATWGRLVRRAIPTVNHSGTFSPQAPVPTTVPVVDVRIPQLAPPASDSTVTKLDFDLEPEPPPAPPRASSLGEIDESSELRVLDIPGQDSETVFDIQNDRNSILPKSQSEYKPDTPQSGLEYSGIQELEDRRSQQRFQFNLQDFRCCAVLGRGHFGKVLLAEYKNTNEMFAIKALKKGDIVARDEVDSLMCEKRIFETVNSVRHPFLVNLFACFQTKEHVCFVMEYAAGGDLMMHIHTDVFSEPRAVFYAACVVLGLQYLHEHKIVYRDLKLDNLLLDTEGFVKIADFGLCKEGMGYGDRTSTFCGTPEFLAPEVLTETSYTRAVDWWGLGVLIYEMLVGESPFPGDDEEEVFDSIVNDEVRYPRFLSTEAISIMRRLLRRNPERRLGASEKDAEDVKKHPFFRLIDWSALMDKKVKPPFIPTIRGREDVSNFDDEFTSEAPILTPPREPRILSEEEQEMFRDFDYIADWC

LIMK1(h) = LIMK1(h) (Homo sapiens (Human), UniProt P53667)
MKK6(h) = MKK6(h) (Homo sapiens (Human), UniProt P52564)
MRCKα(h) = MRCKα(h) (Homo sapiens (Human), UniProt Q5VT25)
PKCι(h) = PKCι(h) (Homo sapiens (Human), UniProt P41743)
PKCα(h) = PKCα(h) (Homo sapiens (Human), UniProt P17252)
Fer(h) = Fer(h) (Homo sapiens (Human), UniProt P16591)
Chain of Fer(h) (P16591 whole entry): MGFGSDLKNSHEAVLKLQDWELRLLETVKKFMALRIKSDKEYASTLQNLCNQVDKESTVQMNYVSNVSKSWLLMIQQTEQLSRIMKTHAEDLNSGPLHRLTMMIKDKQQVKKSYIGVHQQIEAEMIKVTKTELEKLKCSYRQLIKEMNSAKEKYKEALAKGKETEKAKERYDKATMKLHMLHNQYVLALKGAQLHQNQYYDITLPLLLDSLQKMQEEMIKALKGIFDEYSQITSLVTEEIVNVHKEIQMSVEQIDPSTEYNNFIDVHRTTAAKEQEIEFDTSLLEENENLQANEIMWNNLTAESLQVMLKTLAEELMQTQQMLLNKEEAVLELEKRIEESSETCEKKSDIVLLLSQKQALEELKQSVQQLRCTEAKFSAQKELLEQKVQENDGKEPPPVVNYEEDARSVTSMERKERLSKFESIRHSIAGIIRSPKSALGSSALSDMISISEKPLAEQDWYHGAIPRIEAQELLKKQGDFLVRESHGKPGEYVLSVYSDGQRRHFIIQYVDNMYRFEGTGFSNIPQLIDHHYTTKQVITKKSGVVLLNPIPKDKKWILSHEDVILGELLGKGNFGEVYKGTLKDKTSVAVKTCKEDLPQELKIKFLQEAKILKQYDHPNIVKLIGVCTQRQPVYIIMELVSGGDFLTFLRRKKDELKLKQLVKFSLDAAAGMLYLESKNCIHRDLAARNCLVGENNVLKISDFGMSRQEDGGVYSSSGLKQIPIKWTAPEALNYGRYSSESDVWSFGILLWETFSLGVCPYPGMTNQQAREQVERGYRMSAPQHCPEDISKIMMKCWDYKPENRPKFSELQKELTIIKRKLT

cKit(V560G)(h) = cKit(V560G)(h) (Homo sapiens (Human), UniProt P10721, V560G)
FGFR2(N549H)(h) = FGFR2(N549H)(h) (Homo sapiens (Human), UniProt P21802, N549H)
p70S6K(h) = p70S6K(h) (Homo sapiens (Human), UniProt P23443)

Question: Which remaining activity at 1 µM (JNK3(h)) does the source give for `CCn1c(N2CCNCC2)nc2c(Br)c(Br)c(Br)c(Br)c21` [Compound 416, 4,5,6,7-tetrabromo-1-ethyl-2-(piperazin-1-yl)-1H-benzo[d]imidazole] here?
Answer: 87%

Question: And the remaining activity at 1 µM (Rsk3(h))?
Answer: 71%

Question: What about the remaining activity at 1 µM (Arg(m)) of the same compound?
Answer: 96%

Question: And the remaining activity at 1 µM (MKK4(m))?
Answer: 100%

Question: And the remaining activity at 1 µM (PDGFRα(V561D)(h))?
Answer: 68%

Question: And the remaining activity at 1 µM (EphA4(h))?
Answer: 99%

Question: What about the remaining activity at 1 µM (SAPK4(h)) of the same compound?
Answer: 51%

Question: And the remaining activity at 1 µM (DYRK2(h))?
Answer: 45%

Question: And the remaining activity at 1 µM (Fgr(h))?
Answer: 67%

Question: What about the remaining activity at 1 µM (Tie2(Y897S)(h)) of the same compound?
Answer: 91%

Question: What about the remaining activity at 1 µM (BrSK1(h)) of the same compound?
Answer: 103%

Question: What about the remaining activity at 1 µM (EphA1(h)) of the same compound?
Answer: 75%

Question: And the remaining activity at 1 µM (Met(M1268T)(h))?
Answer: 70%

Question: And the remaining activity at 1 µM (Flt1(h))?
Answer: 40%

Question: What about the remaining activity at 1 µM (LKB1(h)) of the same compound?
Answer: 86%

Question: And the remaining activity at 1 µM (CHK1(h))?
Answer: 113%

Question: What about the remaining activity at 1 µM (GSK3α(h)) of the same compound?
Answer: 60%

Question: And the remaining activity at 1 µM (CaMKIIγ(h))?
Answer: 41%

Question: What about the remaining activity at 1 µM (MST1(h)) of the same compound?
Answer: 71%

Question: And the remaining activity at 1 µM (PKCζ(h))?
Answer: 107%

Question: What about the remaining activity at 1 µM (TGFBR1(h)) of the same compound?
Answer: 87%

Question: What about the remaining activity at 1 µM (Lck(h) activated) of the same compound?
Answer: 69%

Question: What about the remaining activity at 1 µM (Abl(Y253F)(h)) of the same compound?
Answer: 92%

Question: And the remaining activity at 1 µM (DRAK1(h))?
Answer: 82%

Question: And the remaining activity at 1 µM (EphB3(h))?
Answer: 121%

Question: And the remaining activity at 1 µM (STK33(h))?
Answer: 66%

Question: What about the remaining activity at 1 µM (Snk(h)) of the same compound?
Answer: 90%

Question: What about the remaining activity at 1 µM (Abl (H396P) (h)) of the same compound?
Answer: 107%

Question: And the remaining activity at 1 µM (SGK3(h))?
Answer: 92%

Question: What about the remaining activity at 1 µM (PRK2(h)) of the same compound?
Answer: 56%

Question: And the remaining activity at 1 µM (LIMK1(h))?
Answer: 98%

Question: And the remaining activity at 1 µM (MKK6(h))?
Answer: 43%

Question: What about the remaining activity at 1 µM (MRCKα(h)) of the same compound?
Answer: 96%

Question: And the remaining activity at 1 µM (PKCι(h))?
Answer: 104%

Question: And the remaining activity at 1 µM (PKCα(h))?
Answer: 95%

Question: What about the remaining activity at 1 µM (Fer(h)) of the same compound?
Answer: 100%

Question: And the remaining activity at 1 µM (cKit(V560G)(h))?
Answer: 35%

Question: And the remaining activity at 1 µM (FGFR2(N549H)(h))?
Answer: 101%

Question: What about the remaining activity at 1 µM (p70S6K(h)) of the same compound?
Answer: 56%
